The term IC50 denotes the concentration that gives 50% inhibition. In general, Kd refers to the free concentration of one partner at which half of the binding sites on the other are occupied at equilibrium, for simple one-to-one binding. In general, stoichiometry N refers to the number of molecules, sites or subunits per partner or assembly.

In assay [1] the target is T1, LecBPAO1 (Pseudomonas aeruginosa, UniProt Q9HYN5). The settings on record: cited from earlier work; for N (LecBPAO1): ITC stoichiometry.
The target in assay [2] is T2, LecBPA14 (Pseudomonas aeruginosa, UniProt A0A0H2ZE85). Briefly: biochemical. The format is binding, P. aeruginosa PA14.
Assay [3] concerns the target T2, LecBPA14. Briefly: biochemical. The format is binding, P. aeruginosa PA14. The method, then: (§1) To quantify the binding affinities of the carbohydrates we adapted the competitive binding assay for LecBPA14 (Fig. S5 ^†) previously described for LecBPAO1.[18]
(§2) The competitive binding assay based on fluorescence polarization was performed as described previously for PAO1.[18] […] After addition of the reagents, the plate was incubated for 8–22 h at r.t. in a humidity chamber. […] The measured intensities were reduced by buffer values and fluorescence polarization was calculated. The data were analyzed using BMG Labtech MARS software and/or with Graphpad Prism and fitted according to the four parameter variable slope model. […] A minimum of three independent measurements of triplicates each was performed for every ligand.
This is another data set of the same source.

Assay [4] concerns the target T1, LecBPAO1. Briefly: biochemical. The format is binding, P. aeruginosa PAO1. The method, then:
as §1, §2

Assay [5] has as its target T1, LecBPAO1. Briefly: biochemical. The format is binding, P. aeruginosa PAO1. This is another data set of the same source.
Assay [6] has as its target LecB from P. aeruginosa PA14 (Pseudomonas aeruginosa UCBPP-PA14). Briefly: dynamic light scattering; 100 μM LecB in TBS/Ca (20 mM Tris, 137 mM NaCl, 2.6 mM KCl, pH 7.4, 1 mM CaCl2), 25 °C, Zetasizer Nano-ZS.
Assay [7] shares this target. Briefly: crystal structure; native LecB_(PA14), hanging drop vapor diffusion at 19 °C, molecular replacement with the tetramer of PDB 1UZV, 1.70 Å.
Where [8] appears, read: individual ITC titrations, Fig. S6, TBS supplemented with 1 mM CaCl2.
Where [9] appears, read: individual ITC titrations, Fig. S6, TBS supplemented with 1 mM CaCl2, protein and ligand concentrations vary.
Setting [10] is: IC50 for LecBPAO1, competitive binding assay.
[11] abbreviates: LecBPAO1 IC50, competitive binding assay, Fig. 3.

Where “and” joins values, the source holds several entries; their conditions need not be identical. Equal values may be shown once. Read-outs that look alike come from different tables or passages of the source.

As to `CO[C@@H]1O[C@@H](C)[C@@H](O)[C@@H](O)[C@@H]1O` [Compound 2, methyl α-L-fucoside], in assay [1] (ITC), the “-TΔS (LecBPAO1)” value was 1.17 kcal/mol and the “ΔH (LecBPAO1)” value was -9.87 kcal/mol. In addition, the “N (LecBPA14)” value in assay [2] (ITC stoichiometry, 25 °C) came out at 0.99 ± 0.04. In addition, in assay [2] (ITC, 25 °C), the “-TΔS (LecBPA14)” value is -1.5 ± 0.201 kcal/mol and the “ΔH (LecBPA14)” value was -7.65 ± 0.227 kcal/mol. For the same compound, in assay [2] (setting [8]), the G is -9,15E+03 cal/mol and -9,22E+03 cal/mol and -9,24E+03 cal/mol and -8,96E+03 cal/mol; the H was -7.957 kcal/mol and -7.593 kcal/mol and -7.612 kcal/mol and -7.414 kcal/mol; the s was 5,45 cal/molK and 5,47 cal/molK and 5,18 cal/molK and 4,01 cal/molK. Moreover, the Ka in assay [2] (setting [9]) is 3,69E+06 1/M.

In assay [3], `OC1[C@H](O)COC[C@H]1O` [Compound 7, 1-deoxy D-arabinose] yielded an IC50 of 6800 ± 1200 nM.

`CC(=O)NC1C(OC2C(O)C(O)OC(CO)C2O)OC(CO)C(OC2OC(CO)C(O)C(O)C2OC2OC(C)C(O)C(O)C2O)C1O` (stereo not shown) [Compound 15, H type II]: the IC50 in assay [3] was determined as 180 nM. Besides, in assay [2] (ITC stoichiometry, 25 °C), the “N (LecBPA14)” value is 0.98 ± 0.03. In addition, in assay [2] (ITC, 25 °C), the “-TΔS (LecBPA14)” value is -2.75 ± 0.263 kcal/mol, the “ΔG (LecBPA14)” value was -9.18 ± 0.22 kcal/mol and the “ΔH (LecBPA14)” value was -6.43 ± 0.454 kcal/mol. The equilibrium dissociation constant (Kd) in assay [2] (Kd (LecBPA14), ITC, 25 °C) came to 199 nM. The same compound came in with an IC50 in assay [4] (setting [10]) of 930 nM. Binding in assay [5] was put at a Kd of 605 ± 140 nM. In addition, the “N (LecBPAO1)” value in assay [5] (ITC stoichiometry, 25 °C) stood at 1.01 ± 0.07. In assay [5] (ITC, 25 °C), the “-TΔS (LecBPAO1)” value is -0.837 ± 0.096 kcal/mol, the “ΔG (LecBPAO1)” value is -8.48 ± 0.12 kcal/mol and the “ΔH (LecBPAO1)” value was -7.67 ± 0.096 kcal/mol.

Compound `OC[C@H]1OC[C@@H](O)[C@@H](O)[C@@H]1O` [Compound 9, 1-deoxy D-mannose] came in with a 50% inhibitory concentration (IC50) in assay [3] of 56000 ± 16000 nM.

In the case of “LecB from P. aeruginosa PA14 (natural protein)”, the stoichiometry N in assay [6] and in assay [7] was 4 throughout.

`CC(=O)NC1C(OC2C(O)C(O)OC(CO)C2O)OC(CO)C(OC2OC(C)C(O)C(O)C2O)C1OC1OC(CO)C(O)C(O)C1O` (stereo not shown) [Compound 12, Lewis^a]: the IC50 in assay [3] is 78 nM. In assay [1], the “N (LecBPAO1)” value is reported as 1.08. Besides, in assay [1] (ITC), the “-TΔS (LecBPAO1)” value was -0.741 kcal/mol, the “ΔG (LecBPAO1)” value was -9.11 kcal/mol and the “ΔH (LecBPAO1)” value is -8.34 kcal/mol. The Kd in assay [1] (read-out: Kd (LecBPAO1), ITC) is 212 nM. Also, in assay [2] (ITC stoichiometry, 25 °C), the “N (LecBPA14)” value is given as 1.05 ± 0.11. Also, in assay [2] (ITC, 25 °C), the “-TΔS (LecBPA14)” value is -0.813 ± 0.509 kcal/mol, the “ΔG (LecBPA14)” value is -9.78 ± 0.196 kcal/mol and the “ΔH (LecBPA14)” value is -8.99 ± 0.602 kcal/mol. Moreover, the Kd in assay [2] (Kd (LecBPA14), ITC, 25 °C) was determined as 70 nM. The Kd in assay [2] (Kd, individual ITC titrations, Fig. S6, TBS supplemented with 1 mM CaCl2) is 62.1 nM and 96.2 nM and 50.3 nM. Further, in assay [2] (setting [8]), the G is -9,83E+03 cal/mol and -9,57E+03 cal/mol and -9,96E+03 cal/mol; the H is -8.521 kcal/mol and -8.769 kcal/mol and -9.667 kcal/mol; the s is 4,39 cal/molK and 2,69 cal/molK and 0,969 cal/molK. Further, in assay [2] (setting [9]), the Ka is 1,61E+07 1/M and 1,04E+07 1/M and 1,99E+07 1/M. This compound also came in with a concentration for half-maximal inhibition (IC50) in assay [4] (setting [10]) of 166 nM. This compound returned an IC50 in assay [4] (setting [11]) of 170 ± 10 nM.

Take `CC(=O)NC1C(OC2C(O)C(O)OC(CO)C2O)OC(CO)C(O)C1OC1OC(CO)C(O)C(O)C1OC1OC(C)C(O)C(O)C1O` (stereo not shown) [Compound 14, H type I]: the IC50 in assay [3] is 910 ± 100 nM; in assay [4] (setting [11]) it was 2300 ± 100 nM.

In the case of `OCC1OC(OC2C(O)C(O)OC(CO)C2O)C(O)C(O)C1O` [Compound 11, α-1,3-D-mannosyl D-mannose], the half-maximal inhibitory concentration (IC50) stood at 26000 ± 6000 nM in assay [3] and 63000 ± 3000 nM in assay [4] (setting [11]).

For the compound `CC(=O)NC1C(OC2C(O)C(O)OC(CO)C2O)OC(CO)C(OC2OC(C)C(O)C(O)C2O)C1OC1OC(CO)C(O)C(O)C1OC1OC(C)C(O)C(O)C1O` (stereo not shown) [Compound 16, Lewis^b], the IC50 amounted to 150 ± 10 nM in assay [3] and 690 ± 40 nM in assay [4] (setting [11]).

`CO[C@H]1O[C@H](CO)[C@@H](O)[C@H](O)[C@@H]1O` [Compound 5, methyl α-D-mannoside]: the “N (LecBPAO1)” value in assay [1] is reported as 0.94. In assay [1] (ITC), the “-TΔS (LecBPAO1)” value was -1.41 kcal/mol and the “ΔH (LecBPAO1)” value was -4.25 kcal/mol. Besides, in assay [2], the “-TΔS (LecBPA14)” value is -3.47 ± 0.0789 kcal/mol; the G is -6,63E+03 cal/mol and -6,52E+03 cal/mol and -6,48E+03 cal/mol; the Ka is 7,18E+04 1/M and 6,20E+04 1/M and 5,54E+04 1/M; the “N (LecBPA14)” value amounted to 1.03 ± 0.07. In assay [2], the s was 11,8 cal/molK and 11,3 cal/molK and 11,7 cal/molK; the “ΔH (LecBPA14)” value was -3.08 ± 0.0813 kcal/mol.

`CO[C@@H]1OC[C@@H](O)[C@@H](O)[C@@H]1O` [Compound 6, methyl β-D-arabinoside] had a 50% inhibitory concentration (IC50) in assay [3] of 1900 ± 400 nM.

On to `CC(=O)N[C@H]1[C@H](O[C@H]2[C@H](O)[C@@H](NC(C)=O)C(O)O[C@@H]2CO)O[C@H](CO)[C@@H](O[C@@H]2O[C@H](CO[C@H]3O[C@H](CO)[C@@H](O)[C@H](O)[C@@H]3O[C@@H]3O[C@H](CO)[C@@H](O[C@@H]4O[C@H](CO)[C@H](O)[C@H](O[C@@H]5O[C@H](CO)[C@@H](O[C@@H]6O[C@H](CO)[C@H](O)[C@H](O)[C@H]6O[C@@H]6O[C@@H](C)[C@@H](O)[C@@H](O)[C@@H]6O)[C@H](O)[C@H]5NC(C)=O)[C@H]4O)[C@H](O)[C@H]3NC(C)=O)[C@@H](O)[C@H](O[C@H]3O[C@H](CO)[C@@H](O)[C@H](O)[C@@H]3O[C@@H]3O[C@H](CO)[C@@H](O[C@@H]4O[C@H](CO)[C@H](O)[C@H](O[C@@H]5O[C@H](CO)[C@@H](O[C@@H]6O[C@H](CO)[C@H](O)[C@H](O)[C@H]6O[C@@H]6O[C@@H](C)[C@@H](O)[C@@H](O)[C@@H]6O)[C@H](O)[C@H]5NC(C)=O)[C@H]4O)[C@H](O)[C@H]3NC(C)=O)[C@@H]2O)[C@@H]1O` (stereo partly shown) [Compound 23], for which the IC50 in assay [3] stood at 35 nM; in assay [4] (setting [10]) it was 114 nM.

With `OCC1OC(OC2C(O)OC(CO)C(O)C2O)C(O)C(O)C1O` [Compound 10, α-1,2-D-mannosyl D-mannose], the half-inhibitory concentration (IC50) in assay [3] was 26000 ± 5000 nM; in assay [4] (setting [11]), 85000 ± 2000 nM.

In assay [3], `C[C@@H]1OC[C@@H](O)[C@H](O)[C@@H]1O` [Compound 8, 1-deoxy L-fucose] registered an IC50 of 610 ± 100 nM.

The values above are taken from article PMC6018602, “The virulence factor LecB varies in clinical isolates: consequences for ligand binding and drug discovery” (Chemical Science, 2016).
